From patent publication US20220324865A1 (Bayer Aktiengesellschaft, priority 2018, published 2022)
Where a name gives a salt, the structure may show the parent alone.

Molecular target: T1, human EP3 receptor (Homo sapiens, UniProt P43115)
T1 construct: expressed in transfected cells; host or cells: CHO K1 (Chinese Hamster Ovary), stably co-transfected with Galpha16 and mitochondrial clytin
T1 sequence (P43115 1-390): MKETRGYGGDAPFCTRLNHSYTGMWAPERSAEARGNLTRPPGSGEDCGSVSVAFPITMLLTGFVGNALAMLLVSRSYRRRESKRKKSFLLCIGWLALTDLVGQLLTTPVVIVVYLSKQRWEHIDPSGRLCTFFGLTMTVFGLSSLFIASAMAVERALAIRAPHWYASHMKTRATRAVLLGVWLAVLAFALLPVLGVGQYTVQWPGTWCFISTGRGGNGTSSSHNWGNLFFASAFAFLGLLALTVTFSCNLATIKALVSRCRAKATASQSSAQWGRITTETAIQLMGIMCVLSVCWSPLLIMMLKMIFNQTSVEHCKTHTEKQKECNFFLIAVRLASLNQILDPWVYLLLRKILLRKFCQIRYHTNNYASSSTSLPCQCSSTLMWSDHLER
Experiment: Cellular in vitro assay for determining EP3 receptor activity (human EP3 cell line, sulprostone-stimulated calcium luminescence)
Type: cell-based
Settings: CHO cells expressing human EP3 and mitochondrial Clytin; antagonist mode, sulprostone at EC50; read-out: EP3 CHO mtCLY ANTAG IC50
Description: B-1. Cellular In Vitro Assay for Determining EP3 Receptor Activity
The identification of antagonists of the EP3 receptor from humans and rats as well as the quantification of the activity of the compounds of the invention was carried out using recombinant cell lines. These cell lines originally derive from a hamsters ovary epithelial cell (Chinese Hamster Ovary, CHO K1, ATCC: American Type Culture Collection, Manassas, Va. 20108, USA). The test cell lines constitutively express the human or rat EP3 receptors. The naturally Gαi-coupled human and rat EP3 receptors were stably co-transfected with Gα16 into cells that are also stably transfected with a mitochondrial form of the calcium-sensitive photoproteins Clytin (human EP3) or Photina (rat EP3), which, after reconstitution with the cofactor coelenterazine, emit light when there are increases in free calcium concentrations (Nature 1992, 358, 325-327; Gene 1995, 153 (2), 273-274). The resulting EP3 receptor cells react to stimulation of the recombinantly expressed EP3 receptors by the agonist sulprostone with intracellular release of calcium ions, which can be quantified by the resulting photoprotein luminescence. Antagonists inhibit the receptor signaling, leading to reduced calcium release and luminescence. The bioluminescence of the cell lines is detected using a suitable luminometer (Trends Pharmacol. Sci. 1996, 17, 235-237).
Human and Rat EP3 Cell Lines:
On the day before the assay, the cells are plated out in culture medium (OptiMEM, 1% FCS, 2 mM glutamine, 10 mM HEPES, 5 μg/ml coelenterazine) in 384-well microtiter plates and kept in a cell incubator (96% humidity, 5% v/v CO2, 37° C.). On the day of the assay, test compounds in various concentrations are placed for 10 minutes in the wells of the microtiter plate before the agonist sulprostone at EC50 concentration is added. The resulting light signal is measured immediately in a luminometer. All concentrations are measured in quadruples.

| Compound | IC50 |
| --- | --- |
| CCN1CCC(NC(=O)c2nn3cc(-c4ccc(C)c(F)c4)[nH]c(=O)c3c2C2CC2)(C(F)(F)F)C1 (single isomer, unassigned) [6-406] | 23.5 nM |
| N#Cc1c(C(=O)N[C@@H](CCO)c2ccc(F)cc2)nn2cc(-c3ccc4ccccc4c3)[nH]c(=O)c12 [Example 1-72, 3-Cyano-N-[(1S)-1-(4-fluorophenyl)-3-hydroxpropyl]-6-(naphthalen-2-yl)-4-oxo-4,5-dihydropyrazolo[1,5-a]pyrazine-2-carboxamide] | 6.55 nM |
| C[C@@H](NC(=O)c1cc2c(=O)[nH]c(-c3ccc4c(c3)ncn4C)cn2n1)c1ccc(F)cc1 [6-660] | 3 nM |
| CC(NC(=O)c1cc2c(=O)[nH]c(-c3ccc4ccccc4c3)cn2n1)c1ccccc1OC(F)F (stereo not shown) [Example 2-50, N-{1-[2-(Difluormethoxy)phenyl]ethyl}-6-(2-naphthyl)-4-oxo-4,5-dihydropyrazolo[1,5-a]pyrazine-2-carboxamide] | 1.15 nM |
| Cc1cccc2ncc(-c3cn4nc(C(=O)NCC(N)=O)c(C(C)C)c4c(=O)[nH]3)cc12 [Example 4-31, N-(2-Amino-2-oxoethyl)-6-(5-methylquinolin-3-yl)-4-oxo-3-(propan-2-yl)-4,5-dihydropyrazolo[1,5-a]pyrazine-2-carboxamide] | 7.4 nM |
| COc1ccc(C(C)NC(=O)c2nn3cc(-c4ccc5ccccc5c4)[nH]c(=O)c3c2C#N)cn1 (stereo not shown) [Example 3-50, 3-Cyano-N-[1-(6-methoxy-3-pyridyl)ethyl]-6-(2-naphthyl)-4-oxo-5H-pyrazolo[1,5-a]pyrazine-2-carboxamide] | 1.75 nM |
| O=C(NC(c1ccc(F)cc1)C1(O)CC1)c1nn2cc(-c3ccc(Cl)c(Cl)c3)[nH]c(=O)c2c1C1CC1 (single isomer, unassigned) [6-424] | 0.68 nM |
| Cc1ccc(-c2cn3nc(C(=O)N[C@H](C)C4CC4)c(C(F)(F)F)c3c(=O)[nH]2)cc1Cl [6-172] | 1.7 nM |
| Cc1ccc(-c2cn3nc(C(=O)N[C@@H](c4ccc(F)cc4)C(C)(C)O)c(C4CC4)c3c(=O)[nH]2)cc1F [Example 1-158] | 0.983 nM |
| CC[C@@H](C)NC(=O)c1nn2cc(-c3ccc(C)c(Cl)c3)[nH]c(=O)c2c1C [Example 1-149, N-[(2R)-Butan-2-yl]-6-(3-chloro-4-methylphenyl)-3-methyl-4-oxo-4,5-dihydropyrazolo[1,5-a]-pyrazine-2-carboxamide] | 2.33 nM |
| Cc1c(C(=O)NC2(c3ccc(F)cc3)CN(C)C2)nn2cc(-c3ccc4ccccc4c3)[nH]c(=O)c12 [Example 1-35, N-[3-(4-Fluorophenyl)-1-methylazetidin-3-yl]-3-methyl-6-(naphthalen-2-yl)-4-oxo-4,5-dihydropyrazolo[1,5-a]pyrazine-2-carboxamide hydrochloride] | 4.25 nM |
| Cc1cc(-c2cn3nc(C(=O)N[C@H](C)C4CC4)c(C4CC4)c3c(=O)[nH]2)ccc1Cl [6-335] | 1.8 nM |
| O=C(N[C@H](CCO)c1ccc(F)cc1)c1cc2c(=O)[nH]c(-c3ccc(Cl)c(Cl)c3)cn2n1 [6-635] | 4.05 nM |
| N#Cc1c(C(=O)N[C@H](CCO)c2ccc(F)cc2)nn2cc(-c3ccc4ccccc4c3)[nH]c(=O)c12 [Example 1-71, 3-Cyano-N-[(1R)-1-(4-fluorophenyl)-3-hydroxypropyl]-6-(naphthalen-2-yl)-4-oxo-4,5-dihydropyrazolo[1,5-a]pyrazine-2-carboxamide] | 1.45 nM |
| Cc1cc(-c2cn3nc(C(=O)NC4(c5ccc(F)cc5)CN(C)C4)c(C4CC4)c3c(=O)[nH]2)ccc1Cl [6-333] | 4 nM |
| CC(C)(O)[C@@H](NC(=O)c1nn2cc(-c3ccc4ccccc4c3)[nH]c(=O)c2c1C#N)c1ccc(F)cc1 [6-110] | 4 nM |

| Compound | IC50 |
| --- | --- |
| CC(C)c1c(C(=O)N[C@H](CCO)c2ccc(F)cc2)nn2cc(-c3cccc(Cl)c3)[nH]c(=O)c12 [6-682] | 1.09 nM |
| [N-]=[N+]=NC[C@H](NC(=O)c1cc2c(=O)[nH]c(-c3ccc4ccccc4c3)cn2n1)c1ccccc1 [6-59] | 4.2 nM |
| Cc1ccc(-c2cn3nc(C(=O)N[C@H](C)c4ccc(F)cc4)c(C(F)(F)F)c3c(=O)[nH]2)cc1C [Example 1-95, 6-(3,4-Dimethylphenyl)-N-[(1R)-1-(4-fluorophenyl)ethyl]-4-oxo-3-(trifluoromethyl)-4,5-dihydropyrazolo[1,5-a]pyrazine-2-carboxamide] | 1.7 nM |
| Cc1ccc(-c2cn3nc(C(=O)NCC(O)C(F)(F)F)c(C4CC4)c3c(=O)[nH]2)cc1Cl (single isomer, unassigned) [6-260] | 0.82 nM |
| Cc1ccc(-c2cn3nc(C(=O)N[C@@H](C)CO)c(C4CCC4)c3c(=O)[nH]2)cc1C [6-578] | 2.3 nM |
| Cc1cccc2ncc(-c3cn4nc(C(=O)NC(CCO)c5ccccc5Cl)c(C(C)C)c4c(=O)[nH]3)cc12 (stereo not shown) [Example 4-44, N-[1-(2-Chlorophenyl)-3-hydroxypropyl]-3-isopropyl-6-(5-methyl-3-quinolyl)-4-oxo-5H-pyrazolo[1,5-a]pyrazine-2-carboxamide] | 1.45 nM |
| Cc1ccc(-c2cn3nc(C(=O)N[C@@H](c4ccc(F)cc4)C(C)(C)O)c(C(F)(F)F)c3c(=O)[nH]2)cc1F [Example 1-147, 6-(3-Fluoro-4-methylphenyl)-N-[(15)-1-(4-fluorophenyl)-2-hydroxy-2-methylpropyl]-4-oxo-3-(trifluoromethyl)-4,5-dihydropyrazolo[1,5-a]pyrazine-2-carboxamide] | 2.9 nM |
| Cc1ccc(-c2cn3nc(C(=O)NC(c4ccccc4)C(O)C(F)(F)F)c(C)c3c(=O)[nH]2)cc1F (stereo not shown) [6-407] | 1.03 nM |
| COc1cccc(C(CCO)NC(=O)c2nn3cc(-c4cnc5cccc(C)c5c4)[nH]c(=O)c3c2C(C)C)c1 (stereo not shown) [Example 4-45, N-[3-Hydroxy-1-(3-methoxyphenyl)propyl]-3-isopropyl-6-(5-methyl-3-quinolyl)-4-oxo-5H-pyrazolo[1,5-a]pyrazine-2-carboxamide] | 0.61 nM |
| C[C@@H](NC(=O)c1cc2c(=O)[nH]c(-c3ccc4c(c3)CCC4)cn2n1)c1ccc(F)cc1 [Example 1-98, 6-(2,3-Dihydro-1H-inden-5-yl)-N-[(1R)-1-(4-fluorophenyl)ethyl]-4-oxo-4,5-dihydropyrazolo[1,5-a]-pyrazine-2-carboxamide] | 3.45 nM |
| COc1ccc(C2(NC(=O)c3cc4c(=O)[nH]c(-c5ccc(C)c(C)c5)cn4n3)CN(C(C)=O)C2)cc1 [Example 1-156, N-[1-Acetyl-3-(4-methoxyphenyl)azetidin-3-yl]-6-(3,4-dimethylphenyl)-4-oxo-5H-pyrazolo[1,5-a]-pyrazine-2-carboxamide] | 3.05 nM |
| Cc1cccc2ncc(-c3cn4nc(C(=O)NC(C)c5ccc(S(C)(=O)=O)cc5)c(C(C)C)c4c(=O)[nH]3)cc12 (stereo not shown) [Example 4-61, 3-Isopropyl-6-(5-methyl-3-quinolyl)-N-[1-(4-methylsulfonylphenyl)ethyl]-4-oxo-5H-pyrazolo[1,5-a]pyrazine-2-carboxamide] | 1.8 nM |
| Cc1ccc(-c2cn3nc(C(=O)N[C@H](C)C(C)C)c(C4CC4)c3c(=O)[nH]2)cc1Cl [6-274] | 1.3 nM |
| Cc1ccc(-c2cn3nc(C(=O)N[C@@H](c4ccc(F)cc4)C(C)(C)O)c(C(C)C)c3c(=O)[nH]2)cc1C [Example 1-135, 6-(3,4-Dimethylphenyl)-N-[(1S)-1-(4-fluorophenyl)-2-hydroxy-2-methylpropyl]-4-oxo-3-(propan-2-yl)-4,5-dihydropyrazolo[1,5-a]pyrazine-2-carboxamide] | 5.8 nM |
| O=C(NC1CCN(CC(F)F)C1)c1nn2cc(-c3ccc4ccccc4c3)[nH]c(=O)c2c1C(F)(F)F (stereo not shown) [6-518] | 1.7 nM |
